# Read-outs that look alike come from different tables or passages of the source.
# Legend:
# [1] = tested on: GM-CSF release from LPS-stimulated monocytes; assay: Inhibition of GM-CSF release from LPS-stimulated monocytes; type: cell-based, human; conditions: for IC50: Homo sapiens, Monocyte
# Method: Inhibition of GM-CSF Release from LPS-Stimulated Monocytes EDTAized human whole blood was mixed with Hanks' buffer in the ratio 1:1. Histopaque 1077 solution (15 ml) was cautiously overlaid with max. 40 ml of the blood: Hanks' mixture and centrifuged (2000 rpm) at room temperature for 30 min. The band enriched with leukocytes was aspirated off, washed twice with Hanks' buffer and transferred into RPMI 1640 medium with Glutamax I (Gibco BRL, Eggenstein). The monocytes were removed through their adherence to the cell culture bottle over a period of two hours. The cells were then thoroughly washed with medium in order to remove non-adherent cells. […] The cells were preincubated with the stated test substances for 30 minutes. LPS was then added, and incubation was continued for a period of 24 h. The supernatants were aspirated off and investigated by ELISA. The amount of secreted human GM-CSF in the cell culture supernatants was determined by using an OptEIA™ human GM-CSF ELISA test (Pharmingen, San Diego). It was carried out in microtiter plates. Anti-human monoclonal antibodies were coupled as antibodies to the plate at 4° C. overnight. This coating and three washes were followed by saturation of nonspecific bindings by means of assay diluent solution™ (PBS with 10% FCS, pH 7.0) (Pharmingen, San Diego) at RT for 1 h. This was followed by incubation with the samples and the standard (recombinant human GM-CSF) at 4° C. overnight. […] All the steps were followed by washing 5 or 7 times with PBS/0.05% Tween 20. The enzyme activity was determined using substrate solution™ (tetramethylbenzidine (TMB) and hydrogen peroxide, Pharmingen, San Diego) as substrate at RT for 30 min. The enzyme-substrate reaction was stopped with 1M phosphoric acid, and the extinction at 450 nm was measured.
# [2] = tested on: TNF release from LPS-stimulated monocytes; assay: Inhibition of TNF release from LPS-stimulated monocytes; type: cell-based, human; conditions: for IC50: Homo sapiens, Monocyte, substance alone, LPS-stimulated monocytes
# Method: EDTAized human whole blood was mixed with Hanks' buffer in the ratio 1:1. Histopaque 1077 solution (15 ml) was cautiously overlaid with max. 40 ml of the blood: Hanks' mixture and centrifuged (2000 rpm) at room temperature for 30 min. The band enriched with leukocytes was aspirated off, washed twice with Hanks' buffer and transferred into RPMI 1640 medium with Glutamax I (Gibco BRL, Eggenstein). The monocytes were removed through their adherence to the cell culture bottle over a period of two hours. The cells were then thoroughly washed with medium in order to remove non-adherent cells. The resulting monocytes were cultured in RPMI 1640 medium with 10% heat-inactivated fetal calf's serum (FCS) and 100 U/ml penicillin and 100 μg/ml streptomycin in a CO2 incubator (5% CO2, 96% relative humidity, 37° C.).
# Primary monocytes were seeded in 24-well plates at 5×10^5 cells/well. The cells were preincubated with the stated test substances for 30 minutes. LPS was then added, and incubation was continued for a period of 24 h. The supernatants were aspirated off and investigated by ELISA.
# [3] = substance alone, LPS-stimulated primary monocytes, 24 h, read-out: IC50 for GM-CSF release from human monocytes
# [4] = when 10 nM loteprednol was given simultaneously
structure (smiles),measurement,setting,value
"O=C(Nc1c(Cl)cncc1Cl)C(=O)c1cn(Cc2ccc(F)cc2)c2ccc(O)cc12 [DFHO, N-(3,5-dichloropyridin-4-yl)-2-[1-(4-fluoro-benzyl)-5-hydroxyindol-3-yl]-2-oxoacetamide]",IC50,"[1]; addition of 10 nM loteprednol, read-out: IC50 for DFHO for GM-CSF release in the presence of loteprednol",60 nM
same,IC50,[1]; [3],3200 nM
same,reduction in the IC50 for GM-CSF release,[1]; [4],98%
same,IC50,[2],5700 nM
same,reduction in the IC50 for TNF release,[2]; [4],99%
CCOC(=O)O[C@]1(C(=O)OCCl)CC[C@H]2[C@@H]3CCC4=CC(=O)C=C[C@]4(C)[C@H]3[C@@H](O)C[C@@]21C [loteprednol],IC50,"[1]; addition of 5 nM DFHO, read-out: IC50 for loteprednol for GM-CSF release in the presence of DFHO",13.4 nM
same,IC50,[1]; [3],53.7 nM
same,reduction in the IC50 for GM-CSF release,[1]; when 5 nM DFHO was given,75%
same,IC50,[2],85.5 nM
same,reduction in the IC50 for TNF release,[2]; when 5 nM DFHO was given,65%
